Laboratory results from US9833497B2, “Human originated EGF domain proteins and use of the same” (CHENGDU SOURCEBIO LIMITED-LIABILITY COMPANY, priority 2013, dated 2017).

What was measured:
Assay type in all cases: cell-based
[1] = system: Moraxella catarrhalis; assay: MIC against Gram-negative bacteria: Moraxella catarrhalis; conditions: 5×10^5 CFU/mL; for MIC M. catarrhalis: two-fold serial dilution
In short: (§1)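 Bacteria grown in LB at 37° C with shaking to McFarland 0.5, pelleted and resuspended in fresh LB, then seeded at 5×10^5 CFU/mL per well. Purified recombinant human EGF domain proteins were two-fold serially diluted in triplicate and plates shaken at 37° C, 175 rpm. MIC is the lowest protein concentration with no bacterial growth.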

[2] = system: Proteus mirabilis; assay: MIC against Gram-negative bacteria: Proteus mirabilis; conditions: 5×10^5 CFU/mL; for MIC P. mirabilis: two-fold serial dilution
In short: as §1

[3] = system: E. coli BL21; assay: MIC against Gram-negative bacteria: E. coli BL21; conditions: 5×10^5 CFU/mL; for MIC E. coli BL21: two-fold serial dilution
In short: as §1

[4] = system: Aeromonas hydrophila; assay: MIC against Gram-negative bacteria: Aeromonas hydrophila; conditions: 5×10^5 CFU/mL; for MIC A. hydrophila: two-fold serial dilution
In short: as §1

[5] = system: Proteus vulgaris; assay: MIC against Gram-negative bacteria: Proteus vulgaris; conditions: 5×10^5 CFU/mL; for MIC P. vulgaris: two-fold serial dilution
In short: as §1

[6] = system: Citrobacter diversus; assay: MIC against Gram-negative bacteria: Citrobacter diversus; conditions: 5×10^5 CFU/mL; for MIC C. diversus: two-fold serial dilution
In short: as §1

[7] = system: E. coli DH5α; assay: Antibacterial activity: MIC and growth curve against E. coli DH5α in 96-well plate; conditions: minimal inhibitory concentration against E. coli DH5α; 96-well plate, 5×10^5 CFU/mL, 37° C., judged after 8 h
In short: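 Log-phase DH5α (OD600 about 0.5, 37° C, 185 rpm in LB) was pelleted, resuspended in fresh LB and seeded at 5×10^5 CFU/mL with recombinant protein at 50, 25 and 12.5 μg/mL (two-fold series), in triplicate. Plates were shaken at 175 rpm, 37° C, and OD600 was read every 30 min. MIC was the lowest concentration with no growth.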

[8] = system: Enterobacter cloacae; assay: MIC against Gram-negative bacteria: Enterobacter cloacae; conditions: 5×10^5 CFU/mL; for MIC E. cloacae: two-fold serial dilution
In short: as §1

[9] = system: Serratia marcescens; assay: MIC against Gram-negative bacteria: Serratia marcescens; conditions: 5×10^5 CFU/mL; for MIC S. marcescens: two-fold serial dilution
In short: as §1

[10] = system: Pseudomonas aeruginosa; assay: MIC against Gram-negative bacteria: Pseudomonas aeruginosa; conditions: 5×10^5 CFU/mL; for MIC P. aeruginosa: two-fold serial dilution
In short: as §1

[11] = system: Klebsiella pneumonia; assay: MIC against Gram-negative bacteria: Klebsiella pneumonia; conditions: 5×10^5 CFU/mL; for MIC K. pneumonia: two-fold serial dilution
In short: as §1

[12] = Moraxella catarrhalis, 96-well plate, 37° C., 10 h
[13] = Proteus mirabilis, 96-well plate, 37° C., 10 h
[14] = E. coli BL21, 96-well plate, 37° C., 10 h
[15] = Aeromonas hydrophila, 96-well plate, 37° C., 10 h
[16] = Proteus vulgaris, 96-well plate, 37° C., 10 h
[17] = Citrobacter diversus, 96-well plate, 37° C., 10 h
[18] = Enterobacter cloacae, 96-well plate, 37° C., 10 h
[19] = Serratia marcescens, 96-well plate, 37° C., 10 h
[20] = Pseudomonas aeruginosa, 96-well plate, 37° C., 10 h
[21] = Klebsiella pneumonia, 96-well plate, 37° C., 10 h

Substance | MIC M. catarrhalis ([1]; 10 h cultivation at 37° C.) [µg/mL] | MIC P. mirabilis ([2]; 10 h cultivation at 37° C.) [µg/mL] | MIC E. coli BL21 ([3]; 10 h cultivation at 37° C.) [µg/mL] | MIC A. hydrophila ([4]; 10 h cultivation at 37° C.) [µg/mL] | MIC P. vulgaris ([5]; 10 h cultivation at 37° C.) [µg/mL] | MIC C. diversus ([6]; 10 h cultivation at 37° C.) [µg/mL] | MIC [7] [µg/mL] | MIC E. cloacae ([8]; 10 h cultivation at 37° C.) [µg/mL] | MIC S. marcescens ([9]; 10 h cultivation at 37° C.) [µg/mL] | MIC P. aeruginosa ([10]; 10 h cultivation at 37° C.) [µg/mL] | MIC K. pneumonia ([11]; 10 h cultivation at 37° C.) [µg/mL] | MIC against M. catarrhalis [1, 12] [µg/mL] | MIC against P. mirabilis [2, 13] [µg/mL] | MIC against E. coli BL21 [3, 14] [µg/mL] | MIC against A. hydrophila [4, 15] [µg/mL] | MIC against P. vulgaris [5, 16] [µg/mL] | MIC against C. diversus [6, 17] [µg/mL] | MIC against E. cloacae [8, 18] [µg/mL] | MIC against S. marcescens [9, 19] [µg/mL] | MIC against P. aeruginosa [10, 20] [µg/mL] | other results
PRT1046 (WGFSCNASCQCAHEAVCSPQTGACTCTPGWHGAHCQ; listed as Homo sapiens) | 50 | 50 | 25 | 12.5 | 25 | 50 | 50 | 25 | 12.5 | 50 | 25 | – | – | – | – | – | – | – | – | – | –
PRT1254 (DVDECSEGTDDCHIDAICQNTPKSYKCLCKPGYKGEGKQCE; listed as Homo sapiens) | – | – | – | – | – | – | 12.5 | – | – | – | – | 50 | 12.5 | 25 | 50 | 25 | 12.5 | 12.5 | 50 | 50 | MIC against K. pneumonia [11, 21]: 25 µg/mL
PRT1138 (EINECDSDPCMNGGLCHESTIPGQFVCLCPPLYTGQFCH; listed as Homo sapiens) | 25 | 12.5 | 50 | 25 | 25 | 50 | 25 | 25 | 50 | 25 | 12.5 | – | – | – | – | – | – | – | – | – | –
PRT1337 (QTSACGPYVQFCHIHATCEYSNGTASCICKAGYEGDGTLCS; listed as Homo sapiens) | – | – | – | – | – | – | 12.5 | – | – | – | – | 12.5 | 25 | 50 | 25 | 50 | 25 | 50 | 12.5 | 12.5 | MIC against K. pneumonia [11, 21]: 25 µg/mL
PRT1446 (FLSPCVDDCGPYGQCKLLRTHNYLYAACECKAGWRGWGCT; listed as Homo sapiens) | – | – | – | – | – | – | 12.5 | – | – | – | – | – | – | – | – | – | – | – | – | – | MIC against M. catarrhalis ([1]; Moraxella catarrhalis, 10 h cultivation at 37° C.): 12.5 µg/mL; MIC against P. mirabilis ([2]; Proteus mirabilis, 10 h cultivation at 37° C.): 12.5 µg/mL; MIC against E. coli BL21 ([3]; E. coli BL21, 10 h cultivation at 37° C.): 12.5 µg/mL; MIC against A. hydrophila ([4]; Aeromonas hydrophila, 10 h cultivation at 37° C.): 25 µg/mL; MIC against P. vulgaris ([5]; Proteus vulgaris, 10 h cultivation at 37° C.): 25 µg/mL; MIC against C. diversus ([6]; Citrobacter diversus, 10 h cultivation at 37° C.): 12.5 µg/mL; MIC against E. cloacae ([8]; Enterobacter cloacae, 10 h cultivation at 37° C.): 12.5 µg/mL; MIC against S. marcescens ([9]; Serratia marcescens, 10 h cultivation at 37° C.): 12.5 µg/mL; MIC against P. aeruginosa ([10]; Pseudomonas aeruginosa, 10 h cultivation at 37° C.): 25 µg/mL; MIC against K. pneumonia ([11]; Klebsiella pneumonia, 10 h cultivation at 37° C.): 25 µg/mL
PRT556 (CQCSSPGVADDRCDPDTGQCRCRVGFEGATCDRCAPGYFHFPLCQL; listed as Homo sapiens) | – | – | – | – | – | – | 25 | – | – | – | – | – | – | – | – | – | – | – | – | – | MIC against M. catarrhalis ([1]; 96-well plate, 37° C., 10 h): 12.5 µg/mL; MIC against P. mirabilis ([2]; 96-well plate, 37° C., 10 h): 25 µg/mL; MIC against E. coli BL21 ([3]; 96-well plate, 37° C., 10 h): 50 µg/mL; MIC against A. hydrophila ([4]; 96-well plate, 37° C., 10 h): 50 µg/mL; MIC against P. vulgaris ([5]; 96-well plate, 37° C., 10 h): 12.5 µg/mL; MIC against C. diversus ([6]; 96-well plate, 37° C., 10 h): 25 µg/mL; MIC against E. cloacae ([8]; 96-well plate, 37° C., 10 h): 12.5 µg/mL; MIC against S. marcescens ([9]; 96-well plate, 37° C., 10 h): 25 µg/mL; MIC against P. aeruginosa ([10]; 96-well plate, 37° C., 10 h): 12.5 µg/mL; MIC against K. pneumonia ([11]; 96-well plate, 37° C., 10 h): 50 µg/mL
